Source: article PMC12376627 (2025)

How the values were obtained:
[1] = test system: Serotonin aptamer (DNA, aptamer) CGACTGGTAGGCAGATAGGGGAAGCTGATTCGATGCGTGGGTCG; test: SPR
[2] = test system: Dopamine aptamer (DNA, aptamer) CGACGCCAGTTTGAAGGTTCGTTCGCAGGTGTGGAGTGACGTCG; test: CNT FET sensor array; conditions: PC12 culture medium; highest concentration tested 10 nM
[3] = test system: Histamine aptamer (DNA, aptamer) AGCTCCAGAAGATAAATTACAGGGAACGTGTTGGTTGCGGTTCTTCCGATCTGCTGTGTTCTCTATCTGTGCCATGCAACTAGGATACTATGACCCCGG; test: CNT FET sensor array; conditions: PC12 culture medium; highest concentration tested 10 nM
[4] = test system: Glutamate aptamer (DNA, aptamer) GCATCAGTCCACTCGTGAGGTCGACTGATGAGGCTCGAT; test: CNT FET sensor array; conditions: PC12 culture medium; highest concentration tested 10 nM
[5] = test system: Serotonin pH-sensitive aptamer (DNA, aptamer) CGACTGGTAGGCAGATAGGGGAAGCTGATTCGATGCGTGGGTCGTTTCGACCTTTCCAGC; test: CNT FET; conditions: 10 nM target; released at acidic pH
[6] = test system: Histamine pH-sensitive aptamer (DNA, aptamer) AGCTCCAGAAGATAAATTACAGGGAACGTGTTGGTTGCGGTTCTTCCGATCTGCTGTGTTCTCTATCTGTGCCATGCAACTAGGATACTATGACCCCGGTTTCCGGGGTTTTTGGGGCC; test: CNT FET; conditions: 10 nM target; released at acidic pH
[7] = test system: Histamine aptamer (DNA, aptamer) AGCTCCAGAAGATAAATTACAGGGAACGTGTTGGTTGCGGTTCTTCCGATCTGCTGTGTTCTCTATCTGTGCCATGCAACTAGGATACTATGACCCCGG; test: SPR
[8] = test system: Serotonin aptamer (DNA, aptamer) CGACTGGTAGGCAGATAGGGGAAGCTGATTCGATGCGTGGGTCG; test: CNT FET sensor array; conditions: PC12 culture medium; highest concentration tested 10 nM
[9] = test system: Dopamine aptamer (DNA, aptamer) CGACGCCAGTTTGAAGGTTCGTTCGCAGGTGTGGAGTGACGTCG; test: SPR
[10] = test system: Dopamine pH-sensitive aptamer (DNA, aptamer) CGACGCCAGTTTGAAGGTTCGTTCGCAGGTGTGGAGTGACGTCGTTTCGACGCTTTAGCAGC; test: CNT FET; conditions: 0.1x PBS (1x: 137 mM NaCl, 2.7 mM KCl); pH 7.4; 10 nM dopamine; released at acidic pH
[11] = test system: Glutamate aptamer (DNA, aptamer) GCATCAGTCCACTCGTGAGGTCGACTGATGAGGCTCGAT; test: SPR
[12] = test system: Glutamate pH-sensitive aptamer (DNA, aptamer) GCATCAGTCCACTCGTGAGGTCGACTGATGAGGCTCGATTTTATCGATTTAGCTA; test: CNT FET; conditions: 10 nM target; released at acidic pH

Row | Compound | Kd [1] [µM] | binding [2] | binding [3] | binding [4] | binding [5] | binding [6] | Kd [7] [µM] | binding [8] | Kd [9] [µM] | binding [10] | Kd [11] [µM] | binding [12]
1 | NCCc1c[nH]c2ccc(O)cc12 | 0.0105 | no | no | no | yes |  |  |  |  |  |  | 
2 | NCCc1c[nH]cn1 |  | no |  | no |  | yes | 0.015 | no |  |  |  | 
3 | NCCc1ccc(O)c(O)c1 |  |  | no | no |  |  |  | no | 0.02 | yes |  | 
4 | N[C@@H](CCC(=O)O)C(=O)O |  | no | no |  |  |  |  | no |  |  | 0.293 | yes
